Assays:
HSV-1 protease = target: T1, HSV-1 protease (Human herpesvirus 1, UniProt P10210); experiment: Enzymatic assay for HSV-1 protease (assembly) inhibitor, fluorescence polarization; assay type: biochemical; conditions: read-out: HSV-1 Enzyme inhibition IC50
T1 construct: 6xHis (N); made in house; host or cells: baculovirus expression system
Protocol: An enzymatic assay method for an HSV-1 protease (assembly) inhibitor
The activity of an assembly protease was determined by fluorescence polarization. Biotin-gamma-amino butyrate-[…]-DTAF was used as a fluorescent substrate in accordance with an HSV-1 release and cleavage site. […] Changes in the sizes of fluorescent substrate molecules that increased with the use of avidin as a reaction terminator were assayed by fluorescence polarization.
The test compound was dissolved in DMF, and the resultant was diluted 5-fold with an assay buffer. 6.5 μl thereof was added to wells of a 96-well plate (a U-bottomed 96-well plate, Coster) that had previously been blocked with a blocking solution (10 mM Tris-HCl (pH 8.0), 150 mM sodium chloride, 0.05% Tween 20, 1 mg/ml of BSA). The enzyme was diluted to 21.3 μg/ml with an assay buffer (1M sodium citrate, 50 mM sodium phosphate (pH 7.4), 100 mM sodium chloride, 20% glycerol, 2 mM TCEP), and 48.5 μl of the resultant was added to each well. The plate was incubated at room temperature for 30 minutes, and 10 μl of 62.5 μg/ml substrate solution was then added to each well. The plate was incubated at room temperature for 60 minutes, and 50 μl of 2 mg/ml avidin phosphate buffer solution (50 mM sodium phosphate, 100 mM sodium chloride (pH 7.4)) was added to each well. The activity was determined in comparison with a compound without protease inhibitor using a microplate reader for fluorescence polarization.
HSV-1 protease was purified from a vaculovirus that had expressed a DNA construct encoding the reading frame for HSV-1UL26. This construct had further encoded 6 histidine residues at the amino terminus of the protease. These additional histidine residues impart affinity ligands purified by nickel-nitriloacetic acid-agarose (Qiagen). The purified protease was stored as a stock solution for a 20 mM HEPES buffer (pH 8.5, containing 20% v/v glycerin). This stock solution was diluted with an assay buffer and then used in the enzyme reaction.
In accordance with the cleavage specificity of the HSV-1 protease at the “release site” of the assembled protein, a specific substrate was synthesized (Diianni et al., J. Biol. Chem. 268, 2048 (1993)). This assembly protein-release site had the sequence • HTYLQA*SEKFKMW • , and the substrate used was biotin-gamma-amino butyrate-HTYLQA*SERFRIK-DTAF. This is a standard method for peptide synthesis, for example, as in the a method described in “The Practice of Peptide Synthesis” (Bodansky and Bodansky (1984)). The product was stored as a 2.5 mg/ml stock solution in DMF. The resultant was diluted to 62.5 μg/ml with a phosphate buffer (50 mM sodium phosphate, 100 mM sodium chloride, (pH 7.4)) immediately before its use.
An assay buffer (1M sodium citrate, 50 mM sodium phosphate (pH 7.4), 100 mM sodium chloride, 20% glycerol, 2 mM TCEP) was used to dilute a stock solution for the enzyme and that for the inhibitor.

HSV-1 = experiment: Antiviral activity, HSV-1 in Vero cells, plaque method; assay type: cell-based; conditions: Human alphaherpesvirus 1, 20 hours, 90% inhibition of plaque formation
Protocol: An Assay Method for Antiviral Activity These complementary assay methods examine the capacity of a compound to inhibit the generation of new viruses and to inhibit the toxicity of the compound against the host cell. Toxicity indirectly decreases the generation of viruses. Thus, it is important to simultaneously conduct both assays in order to directly compare the results. The Vero cells were sown on a 96-well plate and then cultured overnight. The culture supernatant was removed, and 100 μl of 2% FBS-DMEM containing 50,000 plaque-forming units (hereinafter abbreviated as “pfu”) of HSV-1 was added. A viral solution was removed and 200 μl of 2% FBS-DMEM comprising a test compound was added. In this case, a substance to which 2% FBS-DMEM not comprising any test compound had been added was determined as a control. These infected cells were incubated in the presence of 5% CO2 at 37° C. for 20 hours, and the medium was once allowed to freeze at −80° C. The culture solution was dissolved, and the amount of viruses in the culture solution was assayed by the plaque method. The concentration of the test compound when it inhibited 90% of plaque formation relative to the control was determined to be EC 90.

Vero cells = experiment: Cytotoxicity, Vero cells, Alamar Blue; assay type: cell-based; conditions: 25 μM, 20 hours
Protocol: An Assay Method for Cytotoxicity
The Vero cells were sown on a 96-well plate and then cultured overnight. The culture supernatant was removed, and 200 μl of 2% FBS-DMEM comprising 25 μM of the test compound was added. In this case, a substance to which 2% FBS-DMEM not comprising any test compound had been added was determined as a control. These cells were incubated in the presence of 5% CO2 at 37° C. for 20 hours. Alamar Blue (20 μl) was added to the cells, and cells were incubated for about 6 hours until the color of the control changed. The ratio of the absorbance was assayed using a microplate reader for absorption, and the value relative to the control was determined to be the ratio of living cells.

T1 sequence (P10210 1-247): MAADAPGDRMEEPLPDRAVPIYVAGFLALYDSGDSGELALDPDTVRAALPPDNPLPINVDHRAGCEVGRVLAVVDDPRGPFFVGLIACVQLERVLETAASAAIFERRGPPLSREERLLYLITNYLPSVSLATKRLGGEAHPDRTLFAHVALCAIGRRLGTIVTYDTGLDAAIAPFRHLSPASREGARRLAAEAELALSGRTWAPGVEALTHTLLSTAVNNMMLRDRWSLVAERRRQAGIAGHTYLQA

Structure (SMILES)	IC50 (HSV-1 protease)	EC90 (HSV-1)	Cell viability (% of control) (Vero cells)
Cc1c(NC(=O)OC(C)(C)C)ccc2nc(N3Cc4ccccc4C[C@H]3C(=O)N(C)CCc3ccncc3)oc(=O)c12 [Compound No.101, (5-Methyl-2-{3S-[methyl-(2-pyridin-4-yl-ethyl)-carbamoyl]-3,4-dihydro-1H-isoquinolin-2-yl}-4-oxo-4H-benzo[d][1,3]oxazin-6-yl)-carbamic acid tert-butyl ester]	> 20 µM	8.4 µM	45.5%
Cc1c(NC(=O)OC(C)(C)C)ccc2nc(NC3(C(=O)N(C)CCc4cccnc4)CC3)oc(=O)c12 [Compound No.125, (5-Methyl-2-{1-[methyl-(2-pyridin-3-yl-ethyl)-carbamoyl]-cyclopropylamino}-4-oxo-4H-benzo[d][1,3]oxazin-6-yl)-carbamic acid tert-butyl ester]	2.1 µM	> 12.5 µM	–
CCCCc1ccc(C(=O)NCCCC(=O)Nc2ccc3nc(N[C@@H](C)C(=O)N(C)CCc4ccccn4)oc(=O)c3c2C)cc1 [Compound No.220, 4-Butyl-N-[3-(5-methyl-2-{1S-[methyl-(2-pyridin-2-yl-ethyl)-carbamoyl]-ethylamino}-4-oxo-4H-benzo [d][1,3]oxazin-6-ylcarbamoyl)-propyl]-benzamide]	0.5 µM	> 12.5 µM	–
Cc1c(NC(=O)OC(C)(C)C)ccc2nc(N[C@H](C)C(=O)N(C)CCc3ccccn3)oc(=O)c12 [Compound No.132, (5-Methyl-2-{1R-[methyl-(2-pyridin-2-yl-ethyl)-carbamoyl]-ethylamino}-4-oxo-4H-benzo[d][1,3]oxazin-6-yl)-carbamic acid tert-butyl ester]	0.8 µM	15.8 µM	–

Further compounds by falling IC50 (HSV-1 protease), results first:

IC50 (HSV-1 protease)	EC90 (HSV-1)	Structure (SMILES)	Cell viability (% of control) (Vero cells)
4.7 µM	> 12.5 µM	CCCCc1ccc(C(=O)NCCC(=O)Nc2ccc3nc(N[C@@H](C)C(=O)N(C)CCc4ccccn4)oc(=O)c3c2C)cc1 [Compound No.217, 4-Butyl-N-[2-(5-methyl-2-{1S-[methyl-(2-pyridin-2-yl-ethyl)-carbamoyl]-ethylamino}-4-oxo-4H-benzo[d][1,3]oxazin-6-ylcarbamoyl)-ethyl]-benzamide]	–
1.5 µM	10.8 µM	Cc1c(NC(=O)OC(C)(C)C)ccc2nc(N(C)[C@@H](Cc3ccccc3)C(=O)N(C)Cc3ccccn3)oc(=O)c12 [Compound No.82, (5-Methyl-2-{methyl-[1S-(methyl-pyridin-2-ylmethyl-carbamoyl)-2-phenyl-ethyl]-amino}-4-oxo-4H-benzo[d][1,3]oxazin-6-yl)-carbamic acid tert-butyl ester]	61.6%
0.7 µM	> 12.5 µM	CCCCc1ccc(C(=O)NCCC(=O)Nc2ccc3nc(NC(C)(C)C(=O)N(C)CCc4ccccn4)oc(=O)c3c2C)cc1 [Compound No.211, 4-Butyl-N-[2-(5-methyl-2-{1-methyl-1-[methyl-(2-pyridin-2-yl-ethyl)-carbamoyl]-ethylamino}-4-oxo-4H-benzo[d][1,3]oxazin-6-ylcarbamoyl)-ethyl]-benzamide]	–
0.5 µM	> 12.5 µM	Cc1c(NC(=O)CCNC(=O)OCc2ccccc2)ccc2nc(NC(C)(C)C(=O)N(C)CCc3ccccn3)oc(=O)c12 [Compound No.202, [2-(5-Methyl-2-{1-methyl-1-[methyl-(2-pyridin-2-yl-ethyl)-carbamoyl]-ethylamino}-4-oxo-4H-benzo [d][1,3]oxazin-6-ylcarbamoyl)-ethyl]-carbamic acid benzyl ester]	–
0.2 µM	> 12.5 µM	Cc1c(NC(=O)CCCNC(=O)OCc2ccccc2)ccc2nc(N[C@@H](C)C(=O)N(C)CCc3ccccn3)oc(=O)c12 [Compound No.208, [3-(5-Methyl-2-{1S-[methyl-(2-pyridin-2-yl-ethyl)-carbamoyl]-ethylamino}-4-oxo-4H-benzo[d][1,3]oxazin-6-ylcarbamoyl)-propyl]-carbamic acid benzyl ester]	–
